Source: patent US4138590A, “Prostaglandin derivatives” (American Home Products Corporation, priority 1977, dated 1979)

Legend:
Human blood platelets = assay: Blood Platelet Aggregation (ADP induced, modification of Born and Cross); format: cell-based; conditions: human PRP, ADP 2-4 μM
Method: Reference: Modification of Born, G.V.R., and Cross, M. J., J. Physiol., 168, 178-195 (1963).
Test Object: Human blood platelets.
Procedure: Platelet aggregation is the initial step in thrombus formation and it is considered that compounds which prevent aggregation or reduce platelet adhesiveness may inhibit the initiation of the arteriosclerotic process. The effect of drugs on aggregation is measured in platelet rich plasma (PRP) containing adenosine diphosphate (ADP) which markedly increases aggregation in vitro and may be a physiological agent for doing so in vivo.
Human blood is collected from fasted normal blood donors in siliconized 50 ml. Vacutainers that contain 3.8% sodium citrate. Centrifugation at 500 g. for 3 minutes at 5° C. separates the red blood cells from the PRP. The supernatant PRP is pipetted off and the remainder is centrifuged at 1000 g. for 10 minutes at 25° C. to obtain platelet poor plasma for standarization of the automated Payton aggregometer. In the running of the platelet aggregation test a cell containing 1.0 ml. of PRP is stirred at 1,100 rpm and the test compound is added in 0.2 ml. of buffered saline to give an initial concentration of 5 × 10^-3 M, or 5 × 10^-4 M. After 3 minutes, a concentration of ADP predetermined to yield marked platelet aggregation (2 to 4 μM) is added in 0.1 ml. of buffered saline. The curve of light transmission at 610 mμ is followed for 6 minutes. Compounds found to be active at the initial concentration are run at lower concentrations.
Standard Compound: 2-4 μM ADP-Reference Compound.

[1] = test system: bronchoconstricting effects of a standard dose of acetylcholine; assay: Evaluation of Bronchodilator Activity (aerosol inhalation, method of Rosenthale et al.); format: in vivo; conditions: guinea pig, acetylcholine i.v. dose producing ca. 30% bronchoconstriction
Source text: In using the compounds of the invention to produce bronchodilating effects in warm-blooded animals, they may be administered in a variety of dosage forms: oral, injectable, and aerosol inhalation. Aerosol inhalation is a preferred method because of its rapid onset of action, great potency, and specificity of action. The particular dosage to obtain the bronchodilating effect will vary with the particular compound employed, the particular animal involved, and the degree of bronchodilation desired. In the guinea pig, by aerosol inhalation, the dose to produce bronchodilation is from about 0.15 micrograms to about 25 micrograms, and preferably from about 0.15 to about 15 micrograms. The bronchodilation produced upon aerosol inhalation can be observed by the method of Rosenthale et al., J. Pharmacol. Exp. Ther., 178, 541 (1971). Using this procedure the following results were obtained:
*The dose (i.v.) of acetylcholine which produces a ca. 30%

C#CC1=CC(=O)[C@H](/C=C/[C@@H](O)CCCCC)[C@H]1C/C=C\CCCC(=O)O [7-{5β-[(3S)-3-Hydroxy-trans-1-Octenyl]-2-Ethynyl-4-Oxo-2-Cyclopenten-1α-yl}-cis-5-Heptenoic Acid]
inhibition at 22 µM (Human blood platelets; concentration 2.2 × 10^-5 M): 36%

CCCCC[C@H](O)/C=C/[C@H]1C(=O)C=C(C)[C@@H]1C/C=C\CCCC(=O)O [7-{5β-[(3S)-3-Hydroxy-trans-1-Octenyl]-2-Methyl-4-Oxo-2-Cyclopenten-1α-yl}-cis-5-Heptenoic Acid]
inhibition at 0.0057 µM (Human blood platelets; concentration 5.7 × 10^-9 M): 56%
% Inhibition of the Bronchoconstricting effects of a standard dose of acetylcholine ([1]; dose 1.5 μg): 36%
% Inhibition of the Bronchoconstricting effects of a standard dose of acetylcholine ([1]; dose 15 μg): 78%

CCCCC[C@H](O)/C=C/[C@H]1C(=O)C=C(c2ccccc2)[C@@H]1C/C=C\CCCC(=O)O [7-{2β-[(3S)-3-Hydroxy-trans-1-Octenyl]-3-Oxo-5-Phenyl-4-Cyclopenten-1α-yl}-cis-5-Heptenoic Acid]
inhibition at 18 µM (Human blood platelets; concentration 1.8 × 10^-5 M): 22%
